Source: paper PMC10374545, “A small molecule inhibitor of PTP1B and PTPN2 enhances T cell anti-tumor immunity” (Nature Communications, 2023)
Values joined by “and” are separate entries in the source; they are usually repeats but may differ in a detail not shown here. Identical values can stand only once.

Key:
[1] = system: NK cells; assay: NK cell proliferation (CFSE dilution); type: cell-based, mouse; details: IL-15, 96 h; 0.1 or 1 (µM in figure, µg/ml in legend)
Experimental: proliferation in vitro. a-b) NK cells from C57BL/6 male mice (n=3 per group) were expanded […]
µg/ml) or vehicle (1% v/v DMSO) in the absence of IL-15. a) NK cells were re-stimulated for 15 min with the indicated amounts of IL-15 and Y694 phosphorylated STAT-5 (p-STAT-5) mean fluorescence intensities (MFIs) determined by flow cytometry. b) Alternatively, NK cells were stained with carboxyfluorescein succinimidyl ester (CFSE, Invitrogen) and then re-stimulated with the indicated amounts of IL-15 for 96 h and NK cell proliferation (CFSE dilution) monitored by flow cytometry. c-d) NK cells from C57BL/6 male mice (n=3 per group) were expanded ex vivo in the presence of IL-15 and then pre-treated with CMP-182 (0.1 or 1 µg/ml) or vehicle in the absence of IL-15. NK cells were re-stimulated with either IL-12 (10 ng/ml) or IL-18 (100 ng/ml) or with α-NK1.1 or α-Ly49H for 4 h. NK cells were maintained in 10 ng/ml IL-15 throughout the 4 h incubation time. Percentages of c) IFN-γ+ and d) CD107A+ NK cells were determined by flow cytometry. In (a-d) results shown are means ± SEM and are representative of at least two independent experiments.

[2] = system: AT3 mammary tumors; assay: Tumor-infiltrating lymphocytes in AT3 tumors, Compound 182 with α-PD-1; type: in vivo, mouse; set-up: CD4 EM / CD8 EM / IFNg+ TNF+ / GRZMB / MDSCs / NK cells / Tregs: unit not given here
Experimental: (§1) In addition, mice received four intraperitoneal injections of α-PD-1 (200 μg in 200 μl D-PBS; clone RMP1-14), or rat IgG2a isotype control (100 μg in 200 μl D-PBS, Bio X Cell) twice per week.
Tumor-bearing mice were sacrificed and tumors were excised and digested at 37 °C for 30 min using a cocktail of 1 mg/ml collagenase type IV (Worthington Biochemicals) and 0.02 mg/ml DNase I (Sigma-Aldrich) in DMEM supplemented with 2% (v/v) FBS. Cells were passed through a 70 μm cell strainer (BD Biosciences) twice and processed for flow cytometry. For assessing T cell activation, cells were surface stained with fluorophore-conjugated antibodies to CD62L, CD44, PD-1, and TIM-3. For the assessment of NK cells, B cells, myeloid-derived suppressor cells (MDSCs), dendritic cells (DCs), and tumor-associated macrophages, cells were surface stained with fluorophore-conjugated antibodies to NK1.1, TCRβ, CD19, CD11b, CD11c, F4/80, Ly6C and Ly6G. For the detection of intracellular cytokines TNF and IFNγ, T cells were stimulated with PMA (20 ng/ml; Sigma-Aldrich) and ionomycin (1 μg/ml; Sigma-Aldrich) in the presence of GolgiPlug™ and GolgiStop™ (BD Biosciences) for 4 h at 37 °C in complete T cell medium. For the intracellular detection of granzyme B, cells were processed untreated without the addition of BD GolgiPlug™ and BD GolgiStop™.

[3] = system: AT3 mammary tumors; assay: AT3 tumor growth in Lck-Cre;Ptpn2fl/fl mice; type: in vivo, mouse; set-up: key to Tumour growth: tumour size in mm^2 (two-dimensional caliper measurement); Tumour weights / Tumour weights (mean): unit not given here; details: for Tumour size (mean): CMP-182 in LCK-CRE-PTPN2 mice (Group C), in mm2; for Tumour growth: individual mice (Figure 8D)
Experimental: (§2) Male or female mice were injected subcutaneously with 5 × 10^5 MC38 tumor cells resuspended in 100 μl D-PBS into the flank. Alternatively, female mice were injected orthotopically with 5 × 10^5 AT3 or AT3-OVA or PTPN2-deleted AT3 or AT3-OVA tumor cells resuspended in 20 μl D-PBS into the fourth mammary fat pad. Tumor sizes were measured in two dimensions (mm^2) using electronic callipers two to three times per week as soon as tumors were palpable (20–25 mm^2).

[4] = system: AT3 mammary tumors; assay: AT3 tumor growth, Compound 182 with α-PD-1 checkpoint blockade; type: in vivo, mouse
Experimental: as §2, §1

[5] = system: STAT-1 target genes in AT3 tumors; assay: qPCR of STAT-1 target genes in AT3 tumors; type: in vivo, mouse
Experimental: For quantitative real-time PCR analysis, RNA from tumors was isolated using RNAzol (Sigma-Aldrich, St. Louis, MO), and RNA quality was assessed using a NanoDrop 2000 (Thermo Fisher Scientific, Waltham MA). mRNA was reverse-transcribed using the High-Capacity cDNA Reverse Transcription Kit (Applied Biosystems, Thermo Fisher Scientific, Waltham, MA) and processed for quantitative Real-Time PCR using the Fast SYBR Green Master Mix (Applied Biosystems, Thermo Fisher Scientific, Waltham MA) and PrimePCR™ SYBR Green Assays (Bio-Rad, Hercules, CA) for Cxcl9 (qMmuCID0023784), Cxcl10 (qMmuCED0049500), Tapbp (qMmuCEP0035035), Tap1 (qMmuCEP0057739), […], H2ab1 (qMmuCIP0029038), Cd274 (qMmuCED0044192), H2k1 (qMmuCEP0034842), Tnf (qMmuCED0004141) and Ifng (qMmuCID0006268). Relative gene expression was determined by normalization to the house-keeping gene Rps18 (qMmuCED0045430) or Gapdh (qMmuCED0027497). Gene quantification was performed with the comparative Ct (ΔΔCt) method.

[6] = Compound 182 10 mg/kg i.v. + α-PD-1 200 μg i.p.
[7] = Figure 9D, tumour-infiltrating cells, AT-3, individual mice, listed as CMP-182
[8] = Figure 9E, AT-3, individual mice, listed as CMP-182
[9] = Figure 9F, tumour-infiltrating cells, AT-3, individual mice, listed as CMP-182
[10] = Figure 9A, qPCR in tumour, individual mice, CMP-182 vs Saline

CC(C)(O)CCOc1ccc2cc(O)c(N3CC(=O)NS3(=O)=O)c(F)c2c1 [Compound 182, 5-(1-Fluoro-3-hydroxy-7-(3-hydroxy-3-methylbutoxy)naphthalen-2-yl)−1,2,5-thiadiazolidin-3-one 1,1-dioxide]
NK cell proliferation [1]: did not enhance
recruitment of CD4+ and CD8+ effector/memory T cells, combination therapy [2, 6]: synergistic recruitment
CD4 EM [2, 7]: 43342.4 and 57673.5 and 79430.7 and 97780.3 and 96326.3 and 45818.5
CD8 EM [2, 7]: 103472 and 141360 and 229947 and 172459 and 191087 and 113353
GRZMB [2, 8]: 24.8 and 18.9 and 21.2 and 17 and 24 and 19.1
PD-1 TIM-3 [2, 8]: 32.5 and 47.7 and 47.8 and 31.8 and 39.5 and 41.5
IFNg+ TNF+ ([2]; Figure 9E, first IFNg+ TNF+ panel, AT-3, individual mice, listed as CMP-182): 7.74 and 4.13 and 7.71 and 10.5 and 16.5 and 3.24
IFNg+ TNF+ ([2]; Figure 9E, second IFNg+ TNF+ panel, AT-3, individual mice, listed as CMP-182): 19 and 26.4 and 15.4 and 31.9 and 43.5 and 25.3
MDSCs [2, 9]: 15172.6 and 12646.1 and 18636.2 and 29520.3 and 27688.9 and 13342.8
NK cells [2, 9]: 41998.7 and 24391.4 and 32687 and 55002.2 and 59698.1 and 23635.5
Tregs [2, 9]: 32249.8 and 40798.3 and 43823.5 and 55176.6 and 44430.4 and 6773.49
AT3 tumor growth in Lck-Cre;Ptpn2fl/fl mice ([3]; 10 mg/kg i.v., beyond PTPN2 deletion in T cells): further suppressed tumor growth
eradication of AT3 tumors in Lck-Cre;Ptpn2fl/fl mice ([3]; 10 mg/kg i.v., tumors eradicated/total): 3/6
Tumour weights (mean) ([3]; AT-3 tumours, CMP-182 in LCK-CRE-PTPN2 mice): 7
Tumour size (mean) ([3]; AT-3 tumours, time point 7): 19.03
Tumour size (mean) ([3]; AT-3 tumours, time point 10): 21.39
Tumour size (mean) ([3]; AT-3 tumours, time point 12): 20.59
Tumour size (mean) ([3]; AT-3 tumours, time point 14): 19.84
Tumour size (mean) ([3]; AT-3 tumours, time point 16): 13.84
Tumour size (mean) ([3]; AT-3 tumours, time point 19): 12.75
Tumour size (mean) ([3]; AT-3 tumours, time point 21): 13.01
Tumour size (mean) ([3]; AT-3 tumours, time point 23): 11.77
Tumour weights, median ([3]; AT-3 tumours, CMP-182 in LCK-CRE-PTPN2 mice, n=6): 7.500, n=6
Tumour growth ([3]; AT-3 tumours, LCK-CRE-PTPN2 mice n=6, day 7 post injection, listed as CMP-182): 13.566 (2×) and 20.8844 (2×) and 21.6987 (2×) and 6.7144 (2×) and 16.1674 (2×) and 35.1652 (2×)
Tumour growth ([3]; AT-3 tumours, LCK-CRE-PTPN2 mice n=6, day 10 post injection, listed as CMP-182): 12.25 (2×) and 27.03 (2×) and 24 (2×) and 10.5 (2×) and 18.4 (2×) and 36.18 (2×)
Tumour growth ([3]; AT-3 tumours, LCK-CRE-PTPN2 mice n=6, day 12 post injection, listed as CMP-182): 9 (2×) and 29.15 (2×) and 22.5 (2×) and 12.6 (2×) and 15.2 (2×) and 35.1 (2×)
Tumour growth ([3]; AT-3 tumours, LCK-CRE-PTPN2 mice n=6, day 14 post injection, listed as CMP-182): 9 (2×) and 25.92 (2×) and 22.5 (2×) and 13.32 (2×) and 14.35 (2×) and 33.92 (2×)
Tumour growth ([3]; AT-3 tumours, LCK-CRE-PTPN2 mice n=6, day 16 post injection, listed as CMP-182): 0 (4×) and 24.48 (2×) and 22.95 (2×) and 7.5 (2×) and 28.08 (2×)
Tumour growth ([3]; AT-3 tumours, LCK-CRE-PTPN2 mice n=6, day 19 post injection, listed as CMP-182): 0 (4×) and 22.55 (2×) and 22.95 (2×) and 4 (2×) and 27 (2×)
Tumour growth ([3]; AT-3 tumours, LCK-CRE-PTPN2 mice n=6, day 21 post injection, listed as CMP-182): 0 (4×) and 27.56 (2×) and 22.5 (2×) and 4 (2×) and 24 (2×)
Tumour growth ([3]; AT-3 tumours, LCK-CRE-PTPN2 mice n=6, day 23 post injection, listed as CMP-182): 0 (4×) and 25 (2×) and 22.54 (2×) and 1 (2×) and 22.08 (2×)
Tumour weights ([3]; AT-3 tumours, LCK-CRE-PTPN2 mice n=6, individual mice (Figure 8D), listed as CMP-182): 0 and 12 and 10 and 5 and 15
response of AT3 tumors to PD-1 checkpoint blockade ([4]; 10 mg/kg i.v. every 2 days with α-PD-1 200 μg i.p. twice per week): rendered otherwise largely resistant AT3 tumors sensitive
AT3 tumor growth, combination therapy [4, 6]: marked repression
Tumour weights ([4]; Figure 9C, AT-3, individual mice, listed as CMP-182, in mg (unit assumed)): 195 and 335 and 220 and 301 and 250 and 332
expression of STAT-1 target genes, including Cd274, in AT3 tumors ([5]; 10 mg/kg i.v.): increased expression
cd274 [5, 10]: 1.71 and 1.441 and 1.3642 and 1.436 and 2.196 and 0.7307
cxcl9 [5, 10]: 2.179 and 2.3662 and 1.906 and 0.2814 and 3.487 and 0.6344
cxcl10 [5, 10]: 1.765 and 1.612 and 1.49 and 0.6644 and 2.144 and 0.8593
